What was measured:
Assay type in all cases: cell-based
β1-Adrenoceptor = molecular target: T1, β1-Adrenoceptor (Rattus norvegicus, UniProt P18090); experiment: β1-Adrenoceptor stimulating effects: heart rate increase in isolated rat atrium (Magnus method); conditions: isolated atria of male SD rats
T1 construct: Atria of male SD rats (350 to 400 g in body weight) were isolated; from tissue; host or cells: isolated atria of male SD rats
Protocol: Atria of male SD rats (350 to 400 g in body weight) were isolated and the experiment was conducted according to the Magnus methods. The preparations with a tension of 1 g were exposed to Krebs-Henseleit solution maintained at 37° C. and gassed with a mixture of 95% oxygen and 5% carbon dioxide. The cardiac contractility was isometrically measured with a force-displacement transducer and recorded by a rectigraph. The drug efficacy was evaluated as the molar concentration required to produce 20 beats/minute increment of the heart rate (i.e., ECΔ20 value).

β2-Adrenoceptor = molecular target: T2, β2-Adrenoceptor (Rattus norvegicus, UniProt P10608); experiment: β2-Adrenoceptor stimulating effects: inhibition of spontaneous contractions of isolated pregnant rat uterus (Magnus method); conditions: isolated uterus of pregnant SD rats (day 21), cumulative addition every 5 minutes, read-out: EC50 value (concentration required to produce 50% inhibition of uterine contractions), Test Example 1
T2 construct: Uteri of pregnant SD rats (pregnancy day 21) were isolated and longitudinal smooth muscle strips; from tissue; host or cells: longitudinal smooth muscle strips of pregnant SD rat uterus (day 21)
Protocol: Uteri of pregnant SD rats (pregnancy day 21) were isolated and longitudinal smooth muscle strips of approximately 15 mm in length and approximately 5 mm in width free from the basal plate were prepared. The experiment was conducted according to the Magnus method. The preparations with a tension of 1 g were exposed to Locke-Ringer solution maintained at 37° C. and gassed with a mixture of 95% oxygen and 5% carbon dioxide. Spontaneous contractions of myometrium were isometrically measured with a force-displacement transducer and recorded by a rectigraph. The drug was cumulatively added to the Magnus bath every 5 minutes. The drug efficacy was evaluated as the concentration of the drug required to produce 50% of the inhibition of uterine contractions (i.e., EC50 value) by comparing the sum of uterine contractions during 5 minutes after the addition of the drug with the sum of uterine contractions during 5 minutes before the addition of the drug (100%).

β3-Adrenoceptor = β3-Adrenoceptor (Mustela putorius furo, UniProt M3YEU4); experiment: β3-Adrenoceptor stimulating effects: inhibition of spontaneous contractions of isolated ferret ureter (Magnus method); conditions: isolated male ferret ureter, cumulative addition every 3 minutes, read-out: EC50 value (concentration required to produce 50% inhibition of ureter contractions), Test Example 2
Protocol: After removal of connective tissue, longitudinal smooth muscle strips of approximately 20 mm in length were prepared. The experiment was conducted according to the Magnus method. The preparations with a tension of 0.5 g were exposed to Krebs-Henseleit solution maintained at 37° C. and gassed with a mixture of 95% oxygen and 5% carbon dioxide. Spontaneous contractions of ureters were isometrically measured with a force-displacement transducer and recorded by a rectigraph. The drug was cumulatively added to the Magnus bath every 3 minutes.

T1 sequence (P18090 whole entry): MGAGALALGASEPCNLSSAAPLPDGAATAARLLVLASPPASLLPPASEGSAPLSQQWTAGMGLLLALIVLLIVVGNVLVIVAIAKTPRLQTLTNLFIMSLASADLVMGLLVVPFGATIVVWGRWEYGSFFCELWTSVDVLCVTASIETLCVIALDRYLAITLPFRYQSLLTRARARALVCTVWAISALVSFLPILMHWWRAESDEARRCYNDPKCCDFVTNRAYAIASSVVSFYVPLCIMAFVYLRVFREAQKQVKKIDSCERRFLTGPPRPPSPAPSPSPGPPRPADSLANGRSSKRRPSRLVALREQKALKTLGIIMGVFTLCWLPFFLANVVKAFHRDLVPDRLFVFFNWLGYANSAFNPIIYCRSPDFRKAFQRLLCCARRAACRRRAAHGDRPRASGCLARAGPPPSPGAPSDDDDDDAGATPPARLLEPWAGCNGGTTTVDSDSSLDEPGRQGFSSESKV
T2 sequence (P10608 whole entry): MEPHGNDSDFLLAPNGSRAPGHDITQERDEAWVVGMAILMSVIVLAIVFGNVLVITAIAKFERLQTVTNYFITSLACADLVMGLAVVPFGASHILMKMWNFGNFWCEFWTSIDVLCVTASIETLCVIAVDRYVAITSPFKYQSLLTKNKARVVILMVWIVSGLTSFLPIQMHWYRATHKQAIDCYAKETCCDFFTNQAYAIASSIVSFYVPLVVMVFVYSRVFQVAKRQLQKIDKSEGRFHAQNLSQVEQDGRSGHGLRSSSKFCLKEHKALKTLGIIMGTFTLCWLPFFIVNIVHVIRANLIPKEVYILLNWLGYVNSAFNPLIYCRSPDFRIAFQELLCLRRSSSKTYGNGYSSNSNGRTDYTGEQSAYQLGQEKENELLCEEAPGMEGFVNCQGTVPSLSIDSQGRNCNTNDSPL
Chain of β3-Adrenoceptor (M3YEU4 entry or part of it): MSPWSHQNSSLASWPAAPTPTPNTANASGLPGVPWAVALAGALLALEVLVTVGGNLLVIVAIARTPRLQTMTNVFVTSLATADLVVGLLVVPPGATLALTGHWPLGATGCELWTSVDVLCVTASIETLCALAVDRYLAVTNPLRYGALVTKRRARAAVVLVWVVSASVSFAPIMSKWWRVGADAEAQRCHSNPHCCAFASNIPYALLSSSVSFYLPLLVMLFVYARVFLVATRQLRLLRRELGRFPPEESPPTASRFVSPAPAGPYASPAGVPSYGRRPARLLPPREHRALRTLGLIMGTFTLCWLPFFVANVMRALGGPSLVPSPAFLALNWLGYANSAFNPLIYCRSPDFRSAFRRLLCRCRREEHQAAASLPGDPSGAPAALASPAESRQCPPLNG

| Compound | ECΔ20 value (molar concentration required to produce 20 beats/minute increment of the heart rate), Test Example 3 (β1-Adrenoceptor) | EC50 (β2-Adrenoceptor) | ECΔ20 value (molar concentration required to produce 20 beats/minute increment of the heart rate), Test Example 3 (β1-Adrenoceptor; listed as 2-[4-[2-[[(1S,2R)-2-hydroxy-2-(4-hydroxyphenyl)-1-methylethyl]amino]ethyl]phenox) | EC50 (β3-Adrenoceptor) |
| --- | --- | --- | --- | --- |
| C[C@H](NCCc1ccc(OCC(=O)OCc2ccccc2)cc1F)[C@H](O)c1ccc(O)cc1.Cl [Compound 7, Benzyl 2-[3-fluoro-4-[2-[[(1S,2R)-2-hydroxy-2-(4-hydroxyphenyl)-1-methylethyl]amino]ethyl]phenoxy]acetate hydrochloride] | 300 nM | 3.3 nM | – | – |
| C[C@H](NCCc1ccc(OCC(=O)O)cc1F)[C@H](O)c1ccc(O)cc1 [Compound 10, 2-[3-Fluoro-4-[2-[[(1S,2R)-2-hydroxy-2-(4-hydroxyphenyl)-1-methyl-ethyl]amino]ethyl]phenoxy]acetic acid] | 1000 nM | 39 nM | – | – |
| C[C@H](NCCc1ccc(OCC(=O)O)cc1Cl)[C@H](O)c1ccc(O)cc1 [Compound 8, 2-[3-Chloro-4-[2-[[(1S,2R)-2-hydroxy-2-(4-hydroxyphenyl)-1-methyl-ethyl]amino]ethyl]phenoxy]acetic acid] | 110 nM | 13 nM | – | – |
| C[C@H](NCCc1ccc(OCC(=O)O)cc1)[C@H](O)c1ccc(O)cc1 [Compound 9, 2-[4-[2-[[(1S,2R)-2-Hydroxy-2-(4-hydroxyphenyl)-1-methylethyl]-amino]ethyl]phenoxy]acetic acid] | 1300 nM | – | 1300 nM | 14 nM |

Reference: patent US6399660B1, “Aminoethylphenoxyacetic acid derivatives and drugs for pain remission and calculi removal promotion in urinary lithiasis” (Kissei Pharmaceutical Co., Ltd., priority 1997, dated 2002)
